Measured values from patent US20220313769A1, “NEW ANTIOXIDANT COMPOSITION FOR WOUND HEALING” (HISTOCELL, S.L., priority 2019, published 2022).

Tested on: epithelial fibroblasts
Assay: In vitro wound healing assay or scratch assay
Assay type: cell-based
Conditions: 0.001% lycopene compared to 5 mM NAC
Procedure: The in vitro wound healing assay or scratch assay measures the capacity of a product to stimulate cellular proliferation (epithelial fibroblasts or keratinocytes) and close a gash without cells in a cellular monolayer in the culture tissue. For the gash to be homogeneous in all the wells, the cells are seeded in wells containing silicone blocks of the same size, which prevent adhesion of the cells in the area occupied by the block. Thus, epithelial fibroblasts were seeded in 24-well plates with the silicone blocks or barriers. After incubating for 12 hours, the barriers were removed and the cells were incubated for 24-72 hours with medium that contained the components separately or combined [different concentrations of locust bean galactomannan (LBG, 0.2, 0.1 and 0.01%), lycopene (0.001%)] and acetylcysteine (NAC, 5 mM). The entire surface of the well covered by the cells or the number of cells was estimated based on the images obtained of the wells with different treatments.

Question: How did the “Capacity of migration of the fibroblasts (FIG. 2B legend)” value turn out when `CC(C)=CCC/C(C)=C/C=C/C(C)=C/C=C/C(C)=C/C=C/C=C(C)/C=C/C=C(C)/C=C/C=C(\C)CCC=C(C)C` [lycopene] was run?
Answer: Its value is “higher capacity of migration”.

Question: What about the “In vitro healing (FIG. 2B)” value of the same compound?
Answer: The value was “induced in vitro healing better”.
